Data on six compounds can be found in article PMC9612231, “Antileishmanial Anthracene Endoperoxides: Efficacy In Vitro, Mechanisms and Structure-Activity Relationships” (Molecules, 2022).

System in the first test: not listed separately
Nature of the test: Formation of the xylenol orange/Fe3+ complex by EP. Conditions: AcEP and 250 µM FeSO4 in methanol/H2O (9:1). An excerpt:
In subsequent experiments, we explored the activation of EP and possible cellular consequences of these compounds in Leishmania. In a chemical system, we tested how fast EP react with iron (II) and, therefore, lead to the activation of these compounds. Resulting iron (III) was detected as complex with xylenol orange (XO, Figure 3). The reaction rate of the EP stretched across two magnitudes of orders (Table 3). On the first view, there is no direct link between the activation rates and the efficiency of the compounds against Leishmania.
XO (125 µM) and butylated hydroxytoluene (4 mM) were dissolved in MeOH/H2O (9:1). FeSO4 (25 mM) in 2.5 M H2SO4 was prepared immediately before use (final concentration of 250 µM FeSO4 in the color reagent). An aliquot of 100 µL EP solution (final concentration of 100 µM) was transferred into a disposable cuvette (BRAND, Wertheim, Germany), and 1 mL of the color reagent was added. The EP that reacted slower were incubated for 0, 30, 60, and 90 min at 25 °C. The EP that reacted faster were measured every 5 s over 5 min. At these time points, the OD difference of the sample at 560 nm and 650 nm was determined using a MS1501 UV–VIS diode array spectrophotometer (Shimadzu, Kyoto, Japan). As reference, a mixture of MeOH/H2O (9:1) was used. The slope of the reaction rate was calculated using an extinction coefficient of 1.5 × 10^4 M^−1 cm^−1.
Regarding `C[n+]1ccc(C23OOC(c4cc[n+](C)cc4)(c4ccccc42)c2ccccc23)cc1` [Compound 1062MeAcEP], the “Log10 (Formation Rate)” value was 2.78.
Consider `c1ccc(C23OOC(c4ccccc4)(c4ccccc42)c2ccccc23)cc1` [DPAcEP], for which the “Log10 (Formation Rate)” value was 2.83.
The same measure, in the same setting: with `CC(C)(C)c1ccc2c(c1)C1(c3cccnc3)OOC2(c2cccnc2)c2ccccc21` (stereo not drawn) [mPyBuAcEP] the figure was 2.86; with `COc1ccccc1C12OOC(c3ccccc3OC)(c3ccccc31)c1ccccc12` [oOMeAcEP], 2.73.
Consider `c1ccc(C23OOC(c4ccccn4)(c4ccccc42)c2ccccc23)nc1` [oPyAcEP], for which the “Log10 (Formation Rate)” value worked out at 4.91.

Still in this test, the particulars now being: AcEP and 250 µM FeSO4 in methanol/H2O (9:1), mean ± SD of 3 experiments.
With `C[n+]1ccc(C23OOC(c4cc[n+](C)cc4)(c4ccccc42)c2ccccc23)cc1` [Compound 1062MeAcEP], the “XO/Fe^3+ Formation Rate” value stood at 609 ± 27 nmol/min.
Take `c1ccc(C23OOC(c4ccccc4)(c4ccccc42)c2ccccc23)cc1` [DPAcEP]: the “XO/Fe^3+ Formation Rate” value was determined as 677 ± 86 nmol/min.
As to `CC(C)(C)c1ccc2c(c1)C1(c3cccnc3)OOC2(c2cccnc2)c2ccccc21` (stereo not drawn) [mPyBuAcEP], the “XO/Fe^3+ Formation Rate” value came to 731 ± 111 nmol/min.
Same read-out and setting: the figure for `COc1ccccc1C12OOC(c3ccccc3OC)(c3ccccc31)c1ccccc12` [oOMeAcEP] is 545 ± 17 nmol/min.
Turning to `c1ccc(C23OOC(c4ccccn4)(c4ccccc42)c2ccccc23)nc1` [oPyAcEP], the “XO/Fe^3+ Formation Rate” value is recorded as 81,700 ± 11,921 nmol/min.

Still in this test, the particulars now being: XO assay.
Take `CC(C)(C)c1ccc2c(c1)C1(c3cccnc3)OOC2(c2cccnc2)c2ccccc21` (stereo not drawn) [mPyBuAcEP]: the “Activation by iron (II), in words” value is reported as “rather slow activation by iron (II)”.

Another test deals with LtP. Nature of the test: Superoxide radical formation in LtP by the EPR/CMH method. The class given is cell-based, Leishmania tarentolae. Conditions: 100 µM Ac/AcEP, 20 min at 25 °C. An excerpt:
Since mitochondrial inhibition can be triggered by secondary damage in the respective cells, for example, by superoxide radicals, we studied the formation of superoxide radicals in LtP by the EPR/hydroxyl-3-methoxycarbonyl-2,2,5,5-tetramethylpyrrolidine hydrochloride (CMH) method (Figure 10). […] In the presence of antimycin A (AA, an inhibitor of mitochondrial complex III), the superoxide radical formation in LtP is increased by more than 150% (Figure 11).
An aliquot of the LtP cell culture equivalent to 5 × 10^8 LtP was transferred into a 1.5 mL Eppendorf tube and was centrifuged (Hettich Universal 16, 20 °C, 2000× g, 10 min). After removal of the supernatant, the cell pellet was re-suspended in 1 mL PBS and centrifuged again and the supernatant discarded. The cell pellet was re-suspended in 1 mL of PBS with 15 mM glucose (PBS-gluc), giving a final cell density of 5 × 10^8 LtP/mL. AcEP/Ac compounds were added (100 µM final concentration) to aliquots of 50 µL of this cell suspension in 1.5 mL Eppendorf tubes and incubated for 20 min at 25 °C. Then, DFO (100 μM final concentration), DTPA (25 μM final concentration), and detection agent CMH (400 µM final concentration) were added to the aliquots before measurement. Samples containing only buffer (PBS-gluc) or only LtP (in PBS-gluc) were used as negative controls, while samples containing 20 μM AA were used as positive control. An aliquot of 17 µL suspension was aspirated into a PTFE tube (ø 0.7 mm). The tube was folded into a quartz tube (ø 4 mm outer diameter) and then transferred to the MD5 resonator of the EPR spectrometer. The measurement was started using following parameters: microwave frequency 9.682 GHz; microwave power 20 mW, modulation frequency 100 kHz; modulation amplitude 1 G; time constant 0.82 s; center field 3448 G; sweep width 100 G; scan time 84 s; attenuation 70 dB; separate scans 5. Based on a calibration curve with carboxy proxyl (CP^●) changes of the peak-to-peak intensity of CM^● spectra were converted to CMH oxidation rates (superoxide radical generation).
With `CC(C)(C)c1ccc2c(c1)C1(c3cccnc3)OOC2(c2cccnc2)c2ccccc21` (stereo not drawn) [mPyBuAcEP], the “Increase of superoxide formation in LtP” value was “more than 70%”.

The test is the same for the next values; noted with them: 100 µM compound, 20 min at 25 °C.
With `CC(C)(C)c1ccc2c(c1)C1(c3cccnc3)OOC2(c2cccnc2)c2ccccc21` (stereo not drawn) [mPyBuAcEP], the “Superoxide formation in LtP (CMH oxidation), in words” value is given as “most effective in boosting the superoxide production”.
With `CC(C)(C)c1ccc2c(-c3cccnc3)c3ccccc3c(-c3cccnc3)c2c1` [mPyBuAc], the “Superoxide formation in LtP (CMH oxidation), in words” value is “most effective in boosting the superoxide production”.

Another test relates to Leishmania tarentolae promastigotes (LtP). Nature of the test: LtP viability combination assay with NAC or PIH. Conditions: 50 µM PIH, 2 × 10^6 LtP/mL. The class given is cell-based. An excerpt:
Based on the findings from chemical test systems, we studied the actual activation of these EP compounds in LtP. For this purpose, we used the established viability assays for Leishmania and studied how IC50 values were changed by the presence of the typical radical scavenger N-acetyl cysteine (NAC) or the iron chelator for low molecular iron pyridoxal isonicotinoyl hydrazine (PIH). We expressed the changes of the IC50 values in the presence of these additional compounds in percent, referring to the original IC50 values in LtP set to 100% (Figure 8). […] Likewise, in the presence of the iron chelator PIH, the IC50 values of most EP in LtP shifted to higher values.
Assay medium of YEM (20.7 g/L yeast extract powder, 1.2 g/L K2HPO4, 0.2 g/L KH2PO4, 2.9 g/L glucose, pH 7.4) and PBS (1:1, v/v), 25,000 U/L penicillin, 25 mg/L streptomycin, and 7.7 µM hemin was prepared. Aliquots of 200 µL of this medium and 2 × 10^6 LtP/mL (where required) were distributed in non-treated cell culture 96-well plates. Compounds (dissolved in DMSO) were added with starting concentrations of 25 µM (Pen) or 200 µM (AcEP/Ac), and then, serial dilutions were carried out resulting in a set of concentrations (25, 5, 1, 0.2, 0.04, and 0.008 µM) or (200, 40, 8, 1.6, 0.32, and 0.064 µM). For each compound concentration, at least triplicates on each plate were performed. After incubation of the plates at 27 °C for 48 h, 50 µL of resazurin solution (final concentration in wells 20 µM) was added to each well and after 4 h of incubation, the fluorescence was measured at 560 nm excitation and 590 nm emission using a plate reader (Perkin Elmer EnSpire, Rodgau, Germany) (adapted from). Combination assays for viability in the presence of PIH and NAC were performed the same way. However, one half of the plate was filled with YEM/PBS with 2 × 10^6 LtP/mL, and the other half of the plate was filled with YEM/PBS with 2 × 10^6 LtP/mL supplemented with non-toxic concentrations of PIH (50 µM) or NAC (2 mM), so that for each plate, two compounds were tested with and without the presence of PIH or NAC. All tests were repeated at least on four different weeks of cultivation.
Turning to `C[n+]1ccc(C23OOC(c4cc[n+](C)cc4)(c4ccccc42)c2ccccc23)cc1` [Compound 1062MeAcEP], the “Change of IC50 value in LtP by addition of PIH” value (shortened to “Change of IC50 value … of PIH”) is “increase of IC50 values”.
Turning to `c1ccc(C23OOC(c4ccccc4)(c4ccccc42)c2ccccc23)cc1` [DPAcEP], the “Change of IC50 value … of PIH” value was “increase of IC50 values”.
Take `CC(C)(C)c1ccc2c(c1)C1(c3cccnc3)OOC2(c2cccnc2)c2ccccc21` (stereo not drawn) [mPyBuAcEP]: the “Change of IC50 value … of PIH” value is on record as “increase of IC50 values”.
Still for that read-out and setting: the entry for `COc1ccccc1C12OOC(c3ccccc3OC)(c3ccccc31)c1ccccc12` [oOMeAcEP] is “increase of IC50 values”; for `c1ccc(C23OOC(c4ccccn4)(c4ccccc42)c2ccccc23)nc1` [oPyAcEP] it is “no increase was observed”.

Still in this test, the particulars now being: 2 mM NAC, 2 × 10^6 LtP/mL.
In the case of `C[n+]1ccc(C23OOC(c4cc[n+](C)cc4)(c4ccccc42)c2ccccc23)cc1` [Compound 1062MeAcEP], the “Change of IC50 value in LtP by addition of NAC” value is “higher IC50 values in the presence of the thiol NAC”.
On the same count and under the same terms, the entry for `c1ccc(C23OOC(c4ccccc4)(c4ccccc42)c2ccccc23)cc1` [DPAcEP] is “did not respond, but rather displayed even lower IC50 values”; for `CC(C)(C)c1ccc2c(c1)C1(c3cccnc3)OOC2(c2cccnc2)c2ccccc21` (stereo not drawn) [mPyBuAcEP] it is “higher IC50 values in the presence of the thiol NAC”; for `COc1ccccc1C12OOC(c3ccccc3OC)(c3ccccc31)c1ccccc12` [oOMeAcEP] it is “did not respond, but rather displayed even lower IC50 values”.
As for `c1ccc(C23OOC(c4ccccn4)(c4ccccc42)c2ccccc23)nc1` [oPyAcEP], the “Change of IC50 value in LtP by addition of NAC” value was “higher IC50 values in the presence of the thiol NAC”.
